Results as given in patent US9024055B2, “Acetaminophen conjugates, compositions and methods of use thereof” (Acorda Therapeutics, Inc., priority 2011, dated 2015).
≈ marks a conversion by molar mass, not a printed value. Where two headings read alike, the source gives them in different places.

What was measured:
alkaline phosphatase = details: with alkaline phosphatase; cited from earlier work
[1] = cited from earlier work
[2] = cited from earlier work; remark: listed apart in the source
[3] = Solubility in phosphate-buffered saline (pH 7.2) at room temperature (Example 18); details: pH 7.2, aqueous buffer
[4] = Goodman and Gillman's 10th ed; cited from earlier work
[5] = Solubility via modified protocol with water bath equilibration (Example 17B), HPLC; type: physicochemical
Protocol: 10-60 mg of Test Article A was weighed into a 1 mL micro centrifuge tube. 100 μL of solvent was added. Samples were mixed using a vortex mixer, and then sonicated for 15 minutes at ambient temperature. In the event of complete dissolution, more solute was added. The resultant suspensions were equilibrated in a water bath for 20 minutes and were centrifuged for 1 minute to yield an off-white saturated solution. The samples were then equilibrated a further 20 minutes in the water bath. 5-10 μL aliquots of the supernatant were diluted into 25 mL of mobile phase using volumetric flasks, prior to analysis by HPLC.
(§1) A HPLC method was developed to quantify Test Article A concentration via external standard analysis, and also monitor and quantify the hydrolysis product APAP. Linearity was determined over the range 20 to 120 μg/mL, and reproducibility was determined at 100 μg/mL.

[6] = Rat liver microsome-mediated metabolism (appearance of acetaminophen); type: in vitro ADME; details: for Stability in buffer: phosphate buffer at 37° C. (rat microsome study)
Protocol: Loss of APAP-d4 was also monitored.
Lot 62548 consisting of ˜334 male rat livers and lot 59232 consisting of 10 female rat livers were pooled at a 1:1 ratio just before use. […] Compounds were weighed immediately prior to use. […] Purity was taken into account for the stock preparation.
Incubation wells were placed in a wet ice-bath.

[7] = Human liver microsome-mediated metabolism (appearance of acetaminophen); details: for Stability in buffer: phosphate buffer at 37° C. (human microsome study)
Protocol: The appearance of acetaminophen (APAP) when Test Articles A, B or C are incubated in human liver microsomes at 37° C. was determined. Loss of APAP-d4 was also monitored.
One lot consisted of ˜150 human mixed gender liver microsomes was purchased from BD Biosciences and stored frozen at −80° C. until use. Compounds were weighed immediately prior use. Test Article A, Test Article B, and Test Article C were weighed on a microbalance and dissolved in water to generate individual stock solutions, each at a concentration of 3.31 mM. Purity was taken into account for each stock solution prepared. APAP-d4 was weighed on a microbalance and dissolved in water to generate a stock solution at a 3.31 mM concentration. Purity was taken into account for the stock preparation.
One part Test Articles A, B or C and one part APAP-d4 was added to three parts water to arrive at an intermediate solution consisting of 662 μM for each compound.
The intermediate solutions prepared above were added to phosphate buffer to arrive at solutions consisting of 8.827 μM of each compound; these were called Substrate solutions. Incubation wells were placed in a wet ice-bath. 750 μL of Substrate solution was added to the appropriate wells. […] 50 μL of Microsomal suspension (20 mg/mL) was added to the appropriate wells. […] Samples were pre-incubated by shaking at 37° C. for 5 minutes. Just prior to starting the reactions in the next step 80 μL aliquots were removed and “killed” with 200 μL of Stop solution; these were the 0 min samples.
Reactions for the remaining samples were started by adding 180 μL Cofactor Solution (5×) to the appropriate wells. […] A 20 μL aliquot of Cofactor Solution (5×) was added to the stopped 0 min samples. […] At 2.5, 5, 10, 30, 60, 120, and 240 minutes, 100 μL of the specified incubation sample was removed and “killed” with 200 μL of Stop Solution. Once all required samples were collected, the plate was centrifuged at 3000 rpm for 10 minutes to pellet the precipitated proteins, and the resultant supernatants were transferred to a fresh 96-well plate for extraction and analysis.
Samples were analyzed for acetaminophen and acetaminophen-d4 concentrations, using a method that employs HPLC and MS/MS detection.

[8] = Solubility testing, initial protocol (Example 17A), HPLC; type: physicochemical; details: thermodynamic from solid, 18 ° C.
Protocol: 10-60 mg of Test Article A was weighed into a 1 mL micro centrifuge tube. 100 μL of solvent was added. Samples were mixed using a vortex mixer, and then sonicated for 15 minutes at ambient temperature. In the event of complete dissolution, more solute was added. The resultant suspensions were centrifuged to yield an off-white saturated solution. A small aliquot of the supernatant was diluted prior to analysis by HPLC.
as §1

[9] = Test article pharmacokinetics in rats after a single oral or intravenous dose; plasma acetaminophen by LC-MS/MS; type: in vivo, Sprague-Dawley rats; details: for Acetaminophen exposure compared with administration of acetaminophen: equivalent acetaminophen doses, oral and intravenous
Protocol: Forty-eight (48) male and female Sprague-Dawley rats were assigned to eight dose groups consisting of three animals per test article per dose route per gender. There were four test articles including acetaminophen, obtained from Sigma-Aldrich, and three acetaminophen conjugates as set forth below.
The animals received a single dose (oral or intravenous) of the test articles via oral gavage or slow intravenous bolus. […] Cage-side observations were performed daily; body weights were recorded prior to each dosing day. Blood samples for pharmacokinetic (PK) analyses were collected at 5 minutes to 8 hr post-dose and acetaminophen plasma concentrations were measured via a LC-MS/MS method.
Non-compartmental pharmacokinetic analysis was conducted for mean plasma acetaminophen concentrations for each test article. Measures of acetaminophen exposure (e.g., AUClast) were typically greater in female animals than male animals for all test articles and for both the oral and intravenous routes of administration.

[10] = Stability in PBS at 37° C. (control matrix); type: physicochemical; details: out to four hours
Protocol: (§2) Loss of deuterated acetaminophen (APAP-d4) was also monitored in order to account for compound losses due to the metabolism of acetaminophen. Stability of the test samples in PBS at 37° C. was also determined.
(§3) Five lots of human whole blood (lithium heparin) were purchased from Biochemed and stored refrigerated at +5° C.±3° C. until use. Five lots of SD Rat whole blood (lithium heparin) were purchased from Biochemed and stored refrigerated at +5° C.±3° C. until use. Phosphate-buffered saline was used as a control matrix; it was prepared in-house and stored refrigerated at +5° C.±3° C. until use. Test Articles were weighed immediately prior use.
(§4) Whole blood was removed from storage and allowed to reach room temperature. It was pooled by species at this time. Once the pool reached room temperature, individual 1,980 μL aliquots of the whole blood pool were added to the appropriate tubes on test. Individual 1,980 μL aliquots of blank phosphate buffered saline (PBS) were added to the appropriate tubes on test. All tubes were pre-incubated at 37° C. in a water bath for 5 minutes.
The appropriate intermediate solution was added to each tube on test such that the final concentration of the test article in blood was 6.62 μM. The compound was assayed in triplicate at this concentration. Nominal O-minute samples were aliquoted into a 96-well plate as soon as spiking solution was added. Just prior to a 150 μL sample transfer, 450 μL of acetonitrile:methanol (1:1) was placed in the individual receiving wells in order to stop conversion reactions. The plate containing “stopped” samples was held, covered, in a wet-ice bath until all remaining timepoints were aliquoted. All remaining spiked samples were incubated at 37° C. in a water bath throughout the sampling period. […] Just prior to each transfer, 450 μL, of acetonitrile:methanol (1:1) was placed in the receiving wells for those aliquots in order to stop conversion reactions.

[11] = Hydrolysis and metabolism in human whole blood at 37° C. (appearance of acetaminophen); type: in vitro ADME; details: human whole blood vs PBS
Protocol: as §2, §3
(§5) Purity was taken into account for the stock preparation.
as §4, with “1980” for “1,980”, “pool” for “pool were added to the appropriate tubes on test. Individual 1,980 μL aliquots of blank phosphate buffered saline (PBS)”
The appropriate intermediate solution was added to each tube on test such that the final concentration of the test article in blood was 6.62 μM. The compound was assayed in triplicate at this concentration. Nominal O-minute samples were aliquoted into a 96-well plate as soon as spiking solution was added. […]

[12] = Hydrolysis and metabolism in rat whole blood at 37° C. (appearance of acetaminophen); type: in vitro ADME, SD Rat; details: rat whole blood vs PBS
Protocol: as §2, §3, §5, §4
The appropriate intermediate solution was added to each tube on test such that the final concentration of the test article in blood was 6.62 μM. The compound was assayed in triplicate at this concentration. […]

[13] = Anesthesia and Analgesia 101, 90-96, 2005
[14] = British Journal of Anaesthesia 94 (5): 642-648, 2005
[15] = with and without cofactor, compared with buffer, 37° C., up to 240 minutes

SMILES | Water solubility [1] | Local tolerance profile [2, 13] [%] | Local tolerance profile [2, 14] [%] | Stability in buffer [6] | Stability in buffer [7] | Acetaminophen exposure compared with administration of acetaminophen [9] | Stability in PBS [10] | solubility [3] [mg/mL] | Conversion to APAP in blood incubations versus buffer incubations [11] | Conversion to APAP in blood incubations versus buffer incubations [12] | other results
CC(=O)Nc1ccc(OP(=O)(O)O)cc1 [4-acetamidophenyl dihydrogen phosphate] | 50 g per 100 mL | – | – | – | – | – | – | – | – | – | Time required in vitro to yield acetaminophen from the derivative (alkaline phosphatase): about 15 hours
CC(=O)Nc1ccc(O)cc1 [Acetaminophen, N-(4-hydroxyphenyl)acetamide] | about 1.3 g per 100 mL | 0 | 52 | – | – | – | – | – | – | – | solubility ([3]; phosphate-buffered saline): 13.1 mg/mL (≈ 86.7 mM); Half-life [4]: about 2 hours
CCN(CC)CC(=O)Oc1ccc(NC(C)=O)cc1 [Propacetamol, 4-acetamidophenyl 2-(diethylamino)acetate] | – | 49 | 90 | – | – | – | – | – | – | – | –
CC(=O)Nc1ccc(OC(=O)SCCS(=O)(=O)[O-])cc1.[Na+] [Test Article A, Sodium 2-((4-acetamidophenoxy)carbonylthio)ethanesulfonate] | – | – | – | stable | stable | as great as, or greater than | rather stable | – | – | – | solubility at 40 min ([5]; PEG-400, 19 °C, organic solvent or mixture, thermodynamic from solid): 103 mg/mL; solubility at 40 min ([5]; PEG-400/water (50% water), 19 °C, aqueous with cosolvent or surfactant or cyclodextrin, thermodynamic from solid): 306 mg/mL; solubility at 40 min ([5]; pH 5 buffer, 19 °C, pH 5, aqueous buffer, thermodynamic from solid): 226 mg/mL; solubility ([5]; pH 6.5 Buffer, 19 ° C.): 210 mg/mL; solubility at 40 min ([5]; pH 6.5 buffer, 19 °C, pH 6.5, aqueous buffer, thermodynamic from solid): 198 mg/mL; solubility at 40 min ([5]; pH 6.5 buffer, 35 °C, pH 6.5, aqueous buffer, thermodynamic from solid): 406 mg/mL; solubility at 40 min ([5]; pH 8 buffer, 19 °C, pH 8, aqueous buffer, thermodynamic from solid): 198 mg/mL; solubility at 40 min ([5]; propylene glycol, 19 °C, organic solvent or mixture, thermodynamic from solid): 69 mg/mL; solubility at 40 min ([5]; propylene glycol/water (50% water), 19 °C, aqueous with cosolvent or surfactant or cyclodextrin, thermodynamic from solid): 185 mg/mL; solubility ([5]; water, 0 °C, water, thermodynamic from solid, Water (in Fridge), 0 to 4 ° C., read-out: Solubility): 78 mg/mL; solubility at 40 min ([5]; water, 19 °C, thermodynamic from solid, Water Repeat, modified protocol): 230 mg/mL; Conversion to acetaminophen in rat liver microsomes [6, 15]: at a level much greater than incubations with buffer; Conversion to acetaminophen in human liver microsomes [7, 15]: at a level greater than incubations with buffer; solubility at 15 min ([8]; aqueous buffer, PBS): 246 mg/mL; solubility at 15 min ([8]; aqueous with cosolvent or surfactant or cyclodextrin, 50% Water, Ethanol): 199 mg/mL; solubility at 15 min ([8]; organic solvent or mixture, Ethanol): 1 mg/mL; solubility at 15 min ([8]; Water, initial protocol): 280 mg/mL; Time to maximum acetaminophen plasma concentration compared with Test Articles C and B ([9]; oral administration): longer time to maximum acetaminophen plasma concentrations
CC(=O)Nc1ccc(OC(=O)NCCS(=O)[O-])cc1.[Na+] [Test Article B, Sodium 2-((4-acetamidophenoxy)carbonylamino)ethanesulfinate] | – | – | – | not stable | not stable | substantially lower | not stable | 424 | nearly equivalent | nearly equivalent | –
CC(=O)Nc1ccc(OC(=O)NCCS(=O)(=O)[O-])cc1.[Na+] [Test Article C, Sodium 2-((4-acetamidophenoxy)carbonylamino)ethanesulfonate, reference compound] | – | – | – | not stable | not stable | substantially lower | not stable | 492 | nearly equivalent | nearly equivalent | –
